According to US5523403A, “Tropone-substituted phenyloxazolidinone antibacterial agents” (The Upjohn Company, priority 1995, dated 1996):
In brackets after ≈: the same amount, converted by molar mass.

How the values were obtained:
[1] = system: Streptococcus pyogenes UC ® 152; assay: in vitro antibacterial activity, Minimum Inhibitory Concentration, Streptococcus pyogenes; details: for MIC: Streptococcus pyogenes, UC152, read-out: Minimum Inhibitory Concentration
[2] = system: Staphylococcus aureus UC ® 9213; assay: in vitro antibacterial activity, Minimum Inhibitory Concentration, Staphylococcus aureus; details: for MIC: Staphylococcus aureus, UC9213, read-out: Minimum Inhibitory Concentration

| Compound | MIC [1] | MIC [2] | Minimum Inhibitory Concentration ([1]; in vitro, Streptococcus pyogenes UC ® 152) | Minimum Inhibitory Concentration ([2]; in vitro, Staphylococcus aureus UC ® 9213) |
| --- | --- | --- | --- | --- |
| COc1ccc(-c2ccc(N3C[C@H](CNC(C)=O)OC3=O)cc2F)ccc1=O [Compound 19] | 0.25 µg/mL (≈ 0.647 µM) | 1 µg/mL (≈ 2.59 µM) |  |  |
| COc1ccc(-c2ccc(N3CC(CNC(C)=O)OC3=O)cc2)ccc1=O (racemic) [Compound 1, (±)-N[[3-[4-(4-methoxy-5-oxo-,1,3,6-cycloheptatrien-yl)phenyl]-2-oxazolidinyl]methyl-acetamide] | 0.25 µg/mL (≈ 0.679 µM) | 2 µg/mL (≈ 5.43 µM) |  |  |
| CC(=O)NCC1CN(c2ccc(-c3ccc(N4CCC(O)C4)c(=O)cc3)cc2)C(=O)O1 (racemic) [Compound 18, (±)-N-[[3-[4-[4-(3-hydroxy-1-pyrrolidinyl)-5-oxo-1,3,6-cycloheptatrien-1-yl]phenyl]-2-oxo-5oxazolidinyl]methyl]-acetamide] | 1 µg/mL (≈ 2.36 µM) | 4 µg/mL (≈ 9.45 µM) |  |  |
| CC(=O)NCC1CN(c2ccc(-c3ccc(NCc4ccccc4)c(=O)cc3)cc2)C(=O)O1 (racemic) [Compound 3, (±)-Acetamide, N-[[2-oxo-3-[4-[5-oxo-4-[(phenylmethyl)amino]-1,3,6-cycloheptatrien-1-yl]phenyl]-5-oxazolidinyl]methyl]] | 4 µg/mL (≈ 9.02 µM) | > 64 µg/mL |  |  |
| COc1ccc(-c2ccc(N3CC(CNC(C)=O)OC3=O)cc2F)ccc1=O (racemic) [Compound 16, (±)-N-[[3-[3-fluoro-4-(4-methoxy-5-oxo-1,3,6-cycloheptatrien-1-yl)phenyl]-2-oxo-5-oxazolidinyl]methyl]-acetamide] | 0.25 µg/mL (≈ 0.647 µM) | 1 µg/mL (≈ 2.59 µM) |  |  |
| CC(=O)NCC1CN(c2ccc(-c3ccc(NC4CC4)c(=O)cc3)cc2)C(=O)O1 (racemic) [Compound 6, (±)-N-[[3-[4-(4-cyclopropylamino-5-oxo-1,3,6-cycloheptatrien-1-yl)phenyl]-2-oxo-5-oxazolidinyl]methyl]-acetamide] | 0.5 µg/mL (≈ 1.27 µM) | 2 µg/mL (≈ 5.08 µM) |  |  |
| COc1ccc(-c2ccc(N3C[C@H](CNC(C)=O)OC3=O)cc2)ccc1=O [Compound 28, (S)-N-[[3-[4-methoxy-5-oxo-1,3,6-cycloheptatrien-yl)phenyl-2-oxo-5-oxazolidinyl)methyl]-acetamide] |  | 1 µg/mL (≈ 2.71 µM) |  |  |
| CNc1ccc(-c2ccc(N3CC(CNC(C)=O)OC3=O)cc2)ccc1=O (racemic) [Compound 31, (±)-N-[[3-[4-(4-methylamino--5-oxo1,3,6-cyclopheptatrien1-yl)phenyl]2-oxo-5-oxazolidinyl]methyl]-acetamide] | 0.25 µg/mL (≈ 0.68 µM) | 2 µg/mL (≈ 5.44 µM) |  |  |
| COc1cccc(-c2ccc(N3CC(CNC(C)=O)OC3=O)cc2)cc1=O (racemic) [Compound 20, (±)-N-[[3-[4-[4-methoxy-3-oxo-1,4,6-cycloheptatrien-1-yl)phenyl]-2-oxo-5-oxazolidinyl]methyl]-acetamide] | 0.5 µg/mL (≈ 1.36 µM) | 4 µg/mL (≈ 10.9 µM) |  |  |
| CCCCNc1ccc(-c2ccc(N3CC(CNC(C)=O)OC3=O)cc2)ccc1=O (racemic) [Compound 13, (±)-N-[[3-[4-(4-butylamino-5-oxo-1,3,6-cycloheptatrien-1-yl)phenyl]-2-oxo-5-oxazolidinyl]methyl]-acetamide] | 0.5 µg/mL (≈ 1.22 µM) | 2 µg/mL (≈ 4.88 µM) |  |  |
| C#CCNc1cccc(-c2ccc(N3CC(CNC(C)=O)OC3=O)cc2)cc1=O (racemic) [Compound 29, (±)-N-[[3-[4-[4-(2-pyopynylamino)-3-oxo-1,4,6-cycloheptatrien-1-yl)phenyl]2-oxo-5-oxazolidinyl]methyl-acetamide] | 0.5 µg/mL (≈ 1.28 µM) | 2 µg/mL (≈ 5.11 µM) |  |  |
| CC(=O)NCC1CN(c2ccc(-c3ccc(NC4CCCC4)c(=O)cc3)cc2)C(=O)O1 (racemic) [Compound 11, (±)-N-[[3-[4-(4-cyclopentylamino-5-oxo-1,3,6-cycloheptatrien-1-yl)phenyl]-2-oxo-5-oxazolidinyl]methyl]-acetamide] | 1 µg/mL (≈ 2.37 µM) | 4 µg/mL (≈ 9.49 µM) |  |  |
| C=CCOc1ccc(-c2ccc(N3CC(CNC(C)=O)OC3=O)cc2)ccc1=O (racemic) [Compound 33, (±)-N-[[3-[4-[4-(2-propenyloxy)5-oxo-1,3,6-cycloheptatrien-1-yl]phenyl]-2-oxo-5-oxazolidinyl)methyl]-acetamide] | 1 µg/mL (≈ 2.54 µM) | 4 µg/mL (≈ 10.1 µM) |  |  |
| CCN(CC)c1ccc(-c2ccc(N3CC(CNC(C)=O)OC3=O)cc2)ccc1=O (racemic) [Compound 2, (±)-N[[3-[4-(4-diethylamino-5-oxo-1,3,6-cycloheptatrien-1-yl)phenyl]-2-oxo-5-oxazolidinyl]methyl]-acetamide] | 1 µg/mL (≈ 2.44 µM) | 4 µg/mL (≈ 9.77 µM) |  |  |
| CC(=O)NCC1CN(c2ccc(-c3ccc(N4CC=CC4)c(=O)cc3)cc2)C(=O)O1 (racemic) [Compound 32, (±)-N-[[3-[4-[4-(2,5dihydro-1H--pyrrol-1-yl)-5-oxo-1,3,6-cycloheptatrien-1-yl]phenyl]-2-oxo-5-oxazolidinyl]methyl]-acetamide] | 4 µg/mL (≈ 9.87 µM) | 32 µg/mL (≈ 78.9 µM) |  |  |
| CC(=O)NCC1CN(c2ccc(-c3ccc(N4CCCCC4)c(=O)cc3)cc2)C(=O)O1 (racemic) [Compound 15, (±)-N-[[3-[4-[4-(1-piperidinyl)-5-oxo-1,3,6-cycloheptatrien-1-yl]phenyl]-2-oxo-5-oxazolidinyl]methyl]-acetamide] | 1 µg/mL (≈ 2.37 µM) | 2 µg/mL (≈ 4.74 µM) |  |  |
| COc1cc(-c2ccc(N3CC(CNC(C)=O)OC3=O)cc2)cccc1=O (racemic) [Compound 21, (±)-N-[[3-[4-(6-methoxy-5-oxo-1,3,6-cycloheptatrien-1-yl]phenyl]-2-oxo5-oxazolidinyl]methyl]-acetamide] | 8 µg/mL (≈ 21.7 µM) | 64 µg/mL (≈ 174 µM) |  |  |
| CC(=O)NCC1CN(c2ccc(-c3cccc(N4CCOCC4)c(=O)c3)cc2)C(=O)O1 (racemic) [Compound 27, (±)-N-[]3-[4-4-(4-morpholinyl)-3-oxo-1,4,6-cycloheptatrien-1-yl]phenyl]-2-oxo-5-oxazolidinyl]methyl]-acetamide] | 1 µg/mL (≈ 2.36 µM) | 4 µg/mL (≈ 9.45 µM) |  |  |
| CC(=O)NCC1CN(c2ccc(-c3ccc(N4CCOCC4)c(=O)cc3)cc2)C(=O)O1 (racemic) [Compound 5, (±)-N-[[3-[4-[4-(4-morpholino)-5-oxo1,3,6-cycloheptatrien-1-yl]phenyl]2oxo5-oxazolidinyl]methyl]-acetamide] | 0.5 µg/mL (≈ 1.18 µM) | 2 µg/mL (≈ 4.72 µM) |  |  |
| CC(=O)NCC1CN(c2ccc(-c3ccc(N4CCCC4)c(=O)cc3)cc2)C(=O)O1 (racemic) [Compound 9, (±)-N-[[3-[4-[4-(1-pyrrolidinyl)-5-oxo-1,3,6-cycloheptatrien-1-yl]]phenyl]-2-oxo-5-oxazolidinyl]methyl]-acetamide] | 1 µg/mL (≈ 2.45 µM) | 4 µg/mL (≈ 9.82 µM) |  |  |
| C=CCNc1cccc(-c2ccc(N3CC(CNC(C)=O)OC3=O)cc2)cc1=O (racemic) [Compound 26, (±)-N[[3-[4-[4-(2-propenylamino)-3-oxo1,4,6-cycloheptatrien-1-yl]phenyl-2oxo-5-oxazolidinyl]methyl]-acetamide] | 1 µg/mL (≈ 2.54 µM) | 2 µg/mL (≈ 5.08 µM) |  |  |
| C#CCNc1ccc(-c2ccc(N3C[C@H](CNC(C)=O)OC3=O)cc2F)ccc1=O [Compound 34] |  |  | 0.25 µg/mL | 1 µg/mL |
| CC(=O)NCC1CN(c2ccc(-c3ccc(N4C[C@@H](C)N[C@@H](C)C4)c(=O)cc3)cc2)C(=O)O1 (mixture of isomers) [Compound 14, (±)-N-[[3-[4-[4-(cis-3,5-dimethyl-1-piperazinyl)-5-oxo-1,3,6-cycloheptatrien-1-yl]phenyl]-2-oxo5-oxazolidinyl]methyl]-acetamide] | 0.5 µg/mL (≈ 1.11 µM) | 8 µg/mL (≈ 17.8 µM) |  |  |
